From patent publication US20040126343A1, “Nail drug delivery” (priority 2002, published 2004)

Key:
[1] = Penetration of radiolabeled model compounds into human nail plate, diffusion cell, twice daily topical dosing for 7 days; details: for Increase of radioactivity in the ventral surface of the nail plate, carrier formulation compared with saline control / Radioactive Content, Dorsal/intermediate center / Radioactive Content, Ventral/intermediate center: twice daily for 7 days; for Increase of radioactivity in the ventral surface of the nail plate, carrier formulation compared with saline control: p<0.05; for Percent Applied Dose, Cotton supporting bed / Percent Applied Dose, Dorsal/intermediate center / Percent Applied Dose, Remainder of nail / Percent Applied Dose, Subtotal (nail) / Percent Applied Dose, Surface Washing / Percent Applied Dose, Total (mass balance) / Percent Applied Dose, Ventral/intermediate center / Radioactive Content, Dorsal/intermediate center / Radioactive Content, Ventral/intermediate center: mean (SD) of five tests
Description: Nail plates were collected from adult human cadavers and stored in a closed container at 0° C. Before each experiment, nail samples were gently washed with normal saline to remove any contamination, then rehydrated by placing them for 3 h on a cloth wetted with normal saline.
The test formulation contains 45% DMSO, 11% glycerin, 11% ethanol, 11% propylene glycol and water, as discussed in Hewitt P G, et al., 1998, Pharm Res 15:988-992. Normal saline (ABBOTT Laboratories, North Chicago, Ill.) was the control. […] A 5 μL aliquot was removed from each vial and radioactivity was measured in a Packard Liquid Scintillation Counter (model 1500).
A 5 μL dosing aliquot of each of the six test solutions was applied to the surface of a nail plate with a microsyringe twice daily, approximately 8 h apart for 7 days. Starting the second day, each morning before dosing, the surface of the nail was washed with cotton tips in a cycle, as follows: a dry tip, then a tip wetted with 50% skin cleansing liquid Ivory soap, then a tip wetted with distilled water, then another tip wetted with distilled water, then a final dry tip. This simulated a daily bathing. The washing samples from each cycle from each nail were pooled and collected by breaking off the cotton tip into scintillation glass vials. An aliquot of 5.0 mL methanol was added into each vial to extract test material. The radioactivity of each sample was measured in a liquid scintillation counter.
A Teflon® one-chamber diffusion cell (AMIE Systems) was used to hold each nail. To approximate physiological conditions, a small cotton ball wetted with 0.1 mL normal saline was placed in the chamber to serve as a “nail bed” and provide moisture for the nail plate. On day 5, 0.1 mL normal saline was injected through the inlet into the chamber to keep the cotton ball wet. A 1.5×1.5 cm aluminum sheet (0.24 mm thickness) with a hole in the center (1.0 cm diameter) was centered and glued to the top (dorsal) surface of the nail as a “frame” for the seal. The aluminum sheet frame flattens the curved nail and extends the surface area of the nail plate to fit the size of the top cover, so that potential leaking is prevented. The nail plate was placed on a ledge inside the receptor (1.0 cm in diameter and 0.5 cm high), sheet side up. The ventral (inner) surface of the nail was placed face down and rested on the wet cotton ball. Hydration of the nail plate and the supporting cotton bed was measured with a relative humidity/temperature meter (Corneometer CM 820; Courage & Khazaka, Cologne, Germany). Hydration was expressed digitally in arbitrary units (AU).
The rim of the cell base was covered with silicon gel and the top cover was set into the gel to prevent leaking. The metal holder was then tightly screwed into place.
The cells were placed on a platform in a large glass holding tank filled with saturated sodium phosphate solution. A digital relative humidity/temperature meter was used for monitoring room temperature, the chamber temperature, and humidity. The holding tank was then covered, thereby maintaining the cells at a constant humidity of 40%.
The sampling instrument consisted of a drill (Dremel™ model 2850; Dremel Inc., Racine, Wis.), a drill press (Dremel™), an adjustable stage (Fisher, Pittsburgh, Pa.) with an adjustable holder, and a high-speed cutter ( 5/16 inch or 7.9 mm in diameter).
After completion of the incubation phase, the nail plate was removed from the diffusion cell. The aluminum sheet frame was peeled off and placed in a glass scintillation vial. The nail plate was transferred to a clean Teflon® diffusion cell for processing. The nail plate was inverted so that the ventral (nail bed) surface faced up and the dorsal (outer) dosed surface faced down. A top cover was tightly screwed into place. The cell was placed in the middle of the holds on the adjustable stage.

[2] = cited from earlier work
[3] = cited from earlier work; remark: listed apart in the source
[4] = Test Carrier Formulation (45% DMSO)

CC(=O)N1CCN(c2ccc(OCC3COC(Cn4ccnc4)(c4ccc(Cl)cc4Cl)O3)cc2)CC1 (stereo not shown) [Ketoconazole, ketoconazole]
Increase of radioactivity in the ventral surface of the nail plate, carrier formulation compared with saline control [1]: approximately 50%

O=C(O)c1ccccc1O [salicylic acid]
Percent Applied Dose, Cotton supporting bed ([1]; Saline Formulation): 3.66 (2.02) Percent Applied Dose | Percent Applied Dose, Dorsal/intermediate center ([1]; Saline Formulation): 47.10 (7.76) Percent Applied Dose | Percent Applied Dose, Remainder of nail ([1]; Saline Formulation): 14.20 (5.10) Percent Applied Dose | Percent Applied Dose, Subtotal (nail) ([1]; Saline Formulation): 63.83 (9.54) Percent Applied Dose | Percent Applied Dose, Surface Washing ([1]; Saline Formulation): 20.69 (5.97) Percent Applied Dose | Percent Applied Dose, Total (mass balance) ([1]; Saline Formulation): 88.18 (5.52) Percent Applied Dose | Percent Applied Dose, Ventral/intermediate center ([1]; Saline Formulation): 2.53 (0.51) Percent Applied Dose | Radioactive Content, Dorsal/intermediate center ([1]; Saline Formulation): 71.6 (10.6) μg Eq./g Nail Sample | Radioactive Content, Ventral/intermediate center ([1]; Saline Formulation): 7.0 (1.1) μg Eq./g Nail Sample | Radioactive Content, Dorsal/intermediate center [1, 4]: 16.3 (4.2) μg Eq./g Nail Sample | Radioactive Content, Ventral/intermediate center [1, 4]: 10.2 (0.6) μg Eq./g Nail Sample | Percent Applied Dose, Cotton supporting bed ([1]; Test Carrier Formulation): 2.23 (0.75) Percent Applied Dose | Percent Applied Dose, Dorsal/intermediate center ([1]; Test Carrier Formulation): 4.96 (2.13) Percent Applied Dose | Percent Applied Dose, Remainder of nail ([1]; Test Carrier Formulation): 3.87 (1.26) Percent Applied Dose | Percent Applied Dose, Subtotal (nail) ([1]; Test Carrier Formulation): 15.87 (3.76) Percent Applied Dose | Percent Applied Dose, Surface Washing ([1]; Test Carrier Formulation): 70.86 (2.62) Percent Applied Dose | Percent Applied Dose, Total (mass balance) ([1]; Test Carrier Formulation): 88.96 (2.29) Percent Applied Dose | Percent Applied Dose, Ventral/intermediate center ([1]; Test Carrier Formulation): 7.04 (2.67) Percent Applied Dose | Increase of radioactivity in the ventral surface of the nail plate, carrier formulation compared with saline control [1]: approximately 50%

O=C(O)Cc1ccccc1Nc1c(Cl)cccc1Cl [diclofenac sodium]
Permeability of human skin with the percutaneous drug-enhancing formulation ([2]; carrier formulation): enhanced the permeability

O=C(O)Cc1ccccc1Nc1c(Cl)cccc1Cl [diclofenac]
Human skin penetration over the 48 h of study ([2]; multiple dosing, four doses/day for 2 days, in the carrier, compared with a saline control): continually increased

NC(N)=O [Urea, urea]
Radioactive Content, Dorsal/intermediate center ([1]; Saline Formulation): 0.4 (0.3) μg Eq./g Nail Sample | Radioactive Content, Ventral/intermediate center ([1]; Saline Formulation): 0.2 (0.09) μg Eq./g Nail Sample | Radioactive Content, Dorsal/intermediate center [1, 4]: 0.8 (0.5) μg Eq./g Nail Sample | Radioactive Content, Ventral/intermediate center [1, 4]: 0.35 (0.15) μg Eq./g Nail Sample | Increase of radioactivity in the ventral surface of the nail plate, carrier formulation compared with saline control [1]: approximately 50% | pKa [3]: 0.1
